Patent US12466820B2, “Amino quinazoline derivatives as P2X3 inhibitors” (CHIESI FARMACEUTICI S.p.A., priority 2019, dated 2025)

Target: T1, h P2X3 (Homo sapiens, UniProt P56373)
T1 sequence (P56373 1-397): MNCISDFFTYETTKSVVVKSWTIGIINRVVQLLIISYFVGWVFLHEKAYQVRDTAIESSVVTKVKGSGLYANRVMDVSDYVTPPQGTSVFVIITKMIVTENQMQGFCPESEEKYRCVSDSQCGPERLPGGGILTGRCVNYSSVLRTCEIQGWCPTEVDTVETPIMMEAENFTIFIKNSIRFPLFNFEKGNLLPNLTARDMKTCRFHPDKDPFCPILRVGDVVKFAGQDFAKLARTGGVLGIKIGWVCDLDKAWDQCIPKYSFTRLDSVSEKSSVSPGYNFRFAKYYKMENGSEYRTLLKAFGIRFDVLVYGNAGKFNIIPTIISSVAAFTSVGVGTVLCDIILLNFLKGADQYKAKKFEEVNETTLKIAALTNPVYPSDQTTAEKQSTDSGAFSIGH
Assay: In vitro electrophysiology assay for P2X3 (automated whole-cell patch clamp, Sophion Qube)
Type: cell-based
Conditions: Table 6; range of activity; inhibition of P2X3 current, agonist α,β-MeATP (800 nM)
Experimental: Pharmacological Activity of the Compounds of the Invention In Vitro Electrophysiology Assay for P2X3
Cells expressing P2X3 receptors were grown according to standard practice and maintained at 37° C. in a 5% humidified CO2 atmosphere. The cells were seeded into T175 flask 2 days prior to the day of the assay and dissociated from the flasks using TrypLE when grown to confluence of 80-90%. The dissociated cells were resuspended in serum free media at a cell density of 3×10^6 cells/ml and loaded onto the Sophion Qube automated patch-clamp system. The extracellular assay buffer contained 145 mM NaCl, 4 mM KCl, 2 mM CaCl2), 1 mM MgCl2, 10 mM HEPES, and 10 mM glucose at pH 7.4. The intracellular assay solution contained 140 mM CsF, 10 mM NaCl, 10 mM EGTA, 10 mM HEPES at pH 7.2. Agonist stock solutions were prepared in H2O and diluted in bath solution prior to use. All antagonists were prepared as 10 mM stock solutions in DMSO and diluted in bath solution prior to use. All experiments were performed under the whole-cell patch clamp configuration at room temperature with 384 individual cells being voltage clamped at −60 mV simultaneously on the Sophion Qube instrument. Two baseline responses were established with the application of α,β-MeATP (800 nM), with the subsequent agonist applications being washed out using extracellular assay buffer containing 0.5 U/ml apyrase. Following the second agonist application, antagonist was incubated in the absence of α,β-MeATP for 10 minutes. After antagonist preincubation, 800 nM α,β-MeATP and antagonist were co-administered to determine the inhibitory effect of the antagonist. One concentration of an antagonist was assessed against a single cell, with different concentrations of the antagonist applied to other cells on the 384 recording substrate. The control P2X3 current amplitude was taken from the peak current amplitude from the second agonist response prior to preincubation with antagonist. The peak P2X3 current amplitude in the presence of antagonist was used to calculate the inhibitory effect at each concentration of the antagonist according to the following equation: […]
Concentration-response curves were constructed from ten different concentrations with each concentration of antagonist tested on at least two individual cells. The concentration of the antagonist to inhibit P2X3 current by 50% (IC50) was determined by fitting the data with the following equation: […]
Where ‘a’ is minimum response, ‘b’ is maximum response, ‘c’ is IC50 and ‘d’ is Hill slope.
The results for individual compounds are provided below in Table 6 and are expressed as range of activity.
The activity of the comparative examples A and B have been tested in the in vitro Electrophysiology Assay for P2X3 as described above.

Row | IC50 [nM] | SMILES
1 | < 316 | COc1cc(-c2ncc(C)cn2)cc2c(NC(C)c3nnc(C)s3)ncnc12 (single isomer, unassigned) [Example 125, 8-Methoxy-6-(5-methylpyrimidin-2-yl)-N-[1-(5-methyl-1,3,4-thiadiazol-2-yl)ethyl]quinazolin-4-amine]
2 | 316 to 3160 | COc1cc(-c2ncc(F)cn2)cc2c(N[C@H](C)c3ccc(C)nn3)ncnc12 [Example 4]
3 | 316 to 3160 | Cc1ccc(CNc2ncnc3c(OC4CCOCC4)cc(-c4ncc(C)s4)cc23)nn1 [Example 38, N-[(6-methylpyridazin-3-yl)methyl]-6-(5-methylthiazol-2-yl)-8-tetrahydropyran-4-yloxy-quinazolin-4-amine]
4 | 316 to 3160 | Cc1ccc(-c2cc(OC3CCOCC3)c3ncnc(NC(C)c4nnc(C)s4)c3c2)nc1 (single isomer, unassigned) [Example 83, 6-(5-methyl-2-pyridyl)-N-[1-(5-methyl-1,3,4-thiadiazol-2-yl)ethyl]-8-tetrahydropyran-4-yloxy-quinazolin-4-amine]
5 | < 316 | C[C@@H](Nc1ncnc2c(-c3cncnc3)cc(-c3ccc(F)cc3)cc12)c1cnc(C(F)(F)F)nc1 [Example 25, (R)-6-(4-fluorophenyl)-8-(pyrimidin-5-yl)-N-(1-(2-(trifluoromethyl)pyrimidin-5-yl)ethyl)quinazolin-4-amine]
6 | < 316 | COc1cc(-n2cc(Cl)cn2)cc2c(N[C@H](C)c3ccc(C)nn3)ncnc12 [Example 100, (R)-6-(4-chloro-1H-pyrazol-1-yl)-8-methoxy-N-(1-(6-methylpyridazin-3-yl)ethyl)quinazolin-4-amine]
7 | 316 to 3160 | COc1cc(-n2cc(F)cn2)cc2c(N[C@H](C)c3ccc(C)nn3)ncnc12 [Example 98, (R)-6-(4-fluoro-1H-pyrazol-1-yl)-8-methoxy-N-(1-(6-methylpyridazin-3-yl)ethyl)quinazolin-4-amine]
8 | < 316 | Cc1nnc([C@@H](C)Nc2ncnc3c(S(=O)(=O)N(C)C)cc(-c4ccc(F)cc4)cc23)s1 (stereo in doubt) [Example 12, 6-(4-fluorophenyl)-N,N-dimethyl-4-((1-(5-methyl-1,3,4-thiadiazol-2-yl)ethyl)amino)quinazoline-8-sulfonamide]
9 | < 316 | COCCOc1cc(-c2ncc(C)s2)cc2c(NCc3ccc(C)nn3)ncnc12 [Example 35, 8-(2-methoxyethoxy)-N-((6-methylpyridazin-3-yl)methyl)-6-(5-methylthiazol-2-yl)quinazolin-4-amine]
10 | 316 to 3160 | COc1cc(-n2ccc(F)n2)cc2c(N[C@H](C)c3ccc(C)nn3)ncnc12 [Example 101, (R)-6-(3-fluoro-1H-pyrazol-1-yl)-8-methoxy-N-(1-(6-methylpyridazin-3-yl)ethyl)quinazolin-4-amine]
11 | 3160 to 31600 | COc1cc(-c2ncc(C)cn2)cc2c(NCC(=O)N3CCOCC3)ncnc12 [Example 160, 2-((8-methoxy-6-(5-methylpyrimidin-2-yl)quinazolin-4-yl)amino)-1-morpholinoethan-1-one]
12 | 316 to 3160 | COc1cc(-c2ccc(C)cn2)cc2c(NCc3ccn(C)n3)ncnc12 [Example 141, 8-methoxy-N-[(1-methylpyrazol-3-yl)methyl]-6-(5-methyl-2-pyridyl)quinazolin-4-amine]
13 | < 316 | Cc1ccc(CNc2ncnc3c(OCC4COC4)cc(-c4ncc(C)s4)cc23)nn1 [Example 37, N-((6-methylpyridazin-3-yl)methyl)-6-(5-methylthiazol-2-yl)-8-(oxetan-3-ylmethoxy)quinazolin-4-amine]
14 | 316 to 3160 | COc1cc(-c2ccc(F)cn2)cc2c(NC(C)c3nc(C)no3)ncnc12 (single isomer, unassigned) [Example 175, 6-(5-fluoropyridin-2-yl)-8-methoxy-N-(1-(3-methyl-1,2,4-oxadiazol-5-yl)ethyl)quinazolin-4-amine]
15 | 3160 to 31600 | COc1cc(-c2ccc(C)cn2)cc2c(NC(C)c3nnc(C)s3)ncnc12 (single isomer, unassigned) [Example 126, 8-methoxy-6-(5-methyl-2-pyridyl)-N-[1-(5-methyl-1,3,4-thiadiazol-2-yl)ethyl]quinazolin-4-amine]
16 | 316 to 3160 | COc1cc(-c2ccc(C)cn2)cc2c(NC(C)c3nc(C)no3)ncnc12 (single isomer, unassigned) [Example 162, 8-Methoxy-N-[1-(3-methyl-1,2,4-oxadiazol-5-yl)ethyl]-6-(5-methyl-2-pyridyl)quinazolin-4-amine]
17 | < 316 | COc1cc(-c2ncc(C)s2)cc2c(NCc3nnc(C)s3)ncnc12 [Example 114, 8-methoxy-N-((5-methyl-1,3,4-thiadiazol-2-yl)methyl)-6-(5-methylthiazol-2-yl)quinazolin-4-amine]
18 | < 316 | Cc1noc(C(C)Nc2ncnc3c(OC4CCOCC4)cc(-c4ccc(F)cn4)cc23)n1 (single isomer, unassigned) [Example 85, 6-(5-fluoro-2-pyridyl)-N-[1-(3-methyl-1,2,4-oxadiazol-5-yl)ethyl]-8-tetrahydropyran-4-yloxy-quinazolin-4-amine]
19 | < 316 | COc1cc(-c2ncc(C)s2)cc2c(NC(C)c3nnc(C)s3)ncnc12 (stereo not drawn) [Example 106, 8-methoxy-N-(1-(5-methyl-1,3,4-thiadiazol-2-yl)ethyl)-6-(5-methylthiazol-2-yl)quinazolin-4-amine]
20 | 316 to 3160 | COc1cc(-n2ccc(Cl)n2)cc2c(NC(C)c3ccc(C)nn3)ncnc12 (stereo not drawn) [Example 96, 6-(3-chloro-1H-pyrazol-1-yl)-8-methoxy-N-(1-(6-methylpyridazin-3-yl)ethyl)quinazolin-4-amine]
21 | < 316 | COc1cc(-c2ncc(C)cn2)cc2c(NC(C)c3ccc(C(F)(F)F)nn3)ncnc12 (single isomer, unassigned) [Example 120, 8-methoxy-6-(5-methylpyrimidin-2-yl)-N-[1-[6-(trifluoromethyl)pyridazin-3-yl]ethyl]quinazolin-4-amine]
22 | 316 to 3160 | COc1cc(-c2ncc(F)cn2)cc2c(NC(C)c3nc(C)no3)ncnc12 (stereo not drawn) [Example 3, 6-(5-fluoropyrimidin-2-yl)-8-methoxy-N-(1-(3-methyl-1,2,4-oxadiazol-5-yl)ethyl)quinazolin-4-amine]
23 | 316 to 3160 | CNS(=O)(=O)c1cc(-c2ccc(F)cc2)cc2c(N[C@H](C)c3nnc(C)s3)ncnc12 [Example 21]
24 | < 316 | Cc1cnc(-c2cc(OC3CCOCC3)c3ncnc(NC(C)c4nnc(C)s4)c3c2)s1 (single isomer, unassigned) [Example 172, N-[1-(5-methyl-1,3,4-thiadiazol-2-yl)ethyl]-6-(5-methylthiazol-2-yl)-8-tetrahydropyran-4-yloxy-quinazolin-4-amine]
25 | < 316 | COc1cc(-c2ccc(F)cc2)cc2c(NC(C)c3cccc(=O)[nH]3)ncnc12 (stereo not drawn) [Example 1, 6-(1-((6-(4-Fluorophenyl)-8-methoxyquinazolin-4-yl)amino)ethyl)pyridin-2(1H)-one]
26 | 3160 to 31600 | COc1cc(-c2ccc(F)cc2)cc2c(NC(C)c3nc(-c4ccncc4)no3)ncnc12 (single isomer, unassigned) [Example 192, 6-(4-fluorophenyl)-8-methoxy-N-(1-(3-(pyridin-4-yl)-1,2,4-oxadiazol-5-yl)ethyl)quinazolin-4-amine]
27 | < 316 | COc1cc(-c2ncc(C)s2)cc2c(NCc3ncc(F)cc3F)ncnc12 [Example 118, N-((3,5-difluoropyridin-2-yl)methyl)-8-methoxy-6-(5-methylthiazol-2-yl)quinazolin-4-amine]
